# Data from US9186344B2, “Glycogen or polysaccharide storage disease treatment method” (Baylor Research Institute, priority 2004, dated 2015).
# Legend:
# [1] = system: Adult-Onset Glycogen Storage Disease II (Pompe's) patient; assay: Plasma amino acids during initiation of anaplerotic therapy (C7 diet), Example 1 patient; type: in vivo, human; conditions: for Plasma ASPARTATE: normal (0-10); for Plasma CITRULLINE: normal (11-51); for Plasma ARGININE: normal (20-122); for Plasma TRYPTOPHAN: normal (23-86); for Plasma TYROSINE: normal (30-100); for Plasma PHENYLALANINE: normal (35-83); for Plasma ORNITHINE: normal (36-118); for Plasma ISOLEUCINE: normal (39-119); for Plasma LEUCINE: normal (60-204); for Plasma VALINE: normal (108-295); for Plasma ALANINE: normal (162-572); for Plasma GLUTAMINE: normal (424-720); for Plasma Total Amino Acids: normal (1540-4415)
# Excerpt: (§1) Clinical and Biochemical Course on Therapy. […] Esophageal dysmotility was documented. A percutaneous endoscopic gastrostomy (PEG) was placed on the sixth hospital day.
# (§2) The diet was based on vivonex and ˜1500 Kcal was given by nasogastric tube, on admission. […] Total caloric intake was raised from ˜1500 to 1700 to 1900 per day with these dietary changes during […] 33 day admission.
# The levels of Alanine and Glutamine were low compared to the adult normal ranges. While the levels of the branched-chain amino acids (BCAA=Leucine, Valine, & Isoleucine) were within the adult normal ranges. The reduced levels of Alanine and Glutamine have been observed often in this disease and has led to the high protein—low carbohydrate diet and/or alanine supplementation. […] Glutamine increased nearly 2-fold as did the branched chain amino acids (BCAAs). The levels of these amino acids remained in the normal range while receiving the C7 diet. However, the diet was interrupted on day 4 & 5 while awaiting placement of the PEG for gastrostomy feeding. The levels of each of these amino acids promptly fell to admission levels (Table 2: 65 & 84 hour samples). With resumption of the diet via gastrostomy, all levels returned to (or above) the normal ranges in 24 hours. These amino acid levels remained normal on this odd-carbon triglyceride diet therapy.
# [2] = system: adult-onset GSD II (acid maltase deficiency) patient; assay: Clinical course and pCO2 on triheptanoin diet, Example 1 patient; type: in vivo, human
# Excerpt: During the subsequent 2 years, the patient experienced progressive muscle weakness, affecting strength and endurance, swallowing and producing urgency for urination and defecation. The patient's breathing became a major issue and weight had decreased from ˜127 to 101 lbs (46 Kg) over this interval. […] Home O2 was started and upon respiratory arrest was intubated and unsuccessfully extubated leading to emergency admission lasting one month. Following informed consent, the patient agreed to enter an approved Institutional Review Board (IRB) Protocol for dietary therapy with triheptanoin oil.
# as §1, §2
# The patient began ambulating by the 10th day that improved steadily, showering with assistance by the 28th day. Pneumonia on day 17 responded to therapy and was extubated on day 23. They were discharged on bilevel positive airway pressure (BIPAP), the C7 diet, and carnitine supplement.
# [3] = Blood acylcarnitine profile after triheptanoin via nasogastric tube; type: in vivo, horse
# Excerpt: Acylcarnitine Profiles. Acylcarnitines and carnitine levels in dried blood spots (dbs), plasma and amniotic fluid by automated electrospray tandem mass spectrometry Acylcarnitines are extracted from blood spots, plasmas and amniotic fluid with methanol containing stable isotopically labeled internal standards. The extract is derivatized to form butyl esters. An automated sample introduction system delivers the samples to the electrospray tandem mass spectrometer (ESI-MS/MS) operating in the multiple channel analysis mode in which acylcarnitines are identified, profiled, and quantified with stable isotopically labeled internal standards. This test also provides quantification of free, sum of acylcarnitines, and total carnitine levels.
# Horses: Eight healthy, fit 4 year old thoroughbred geldings may be used in a study. These horses are all sound and trained to the treadmill. The ability of horses to absorb and digest C7 oil was first determined.
# [4] = thirteen hours after initiating the C7 diet
# [5] = on C7 diet and carnitine supplement
smiles,measurement,setting,value
"CCCCCCC(=O)OCC(COC(=O)CCCCCC)OC(=O)CCCCCC [C7, triheptanoin]",Plasma ASPARTATE,"[1]; 13 hrs, C7 = 1.0 gm/Kg",44 µM
same,Plasma CITRULLINE,"[1]; 13 hrs, C7 = 1.0 gm/Kg",1 µM
same,Plasma ARGININE,"[1]; 13 hrs, C7 = 1.0 gm/Kg",96 µM
same,Plasma TRYPTOPHAN,"[1]; 13 hrs, C7 = 1.0 gm/Kg",121 µM
same,Plasma TYROSINE,"[1]; 13 hrs, C7 = 1.0 gm/Kg",110 µM
same,Plasma PHENYLALANINE,"[1]; 13 hrs, C7 = 1.0 gm/Kg",101 µM
same,Plasma ORNITHINE,"[1]; 13 hrs, C7 = 1.0 gm/Kg",78 µM
same,Plasma ISOLEUCINE,"[1]; 13 hrs, C7 = 1.0 gm/Kg",81 uM/L
same,Plasma LEUCINE,"[1]; 13 hrs, C7 = 1.0 gm/Kg",154 uM/L
same,Plasma VALINE,"[1]; 13 hrs, C7 = 1.0 gm/Kg",333 uM/L
same,Plasma ALANINE,"[1]; 13 hrs, C7 = 1.0 gm/Kg",551 uM/L
same,Plasma GLUTAMINE,"[1]; 13 hrs, C7 = 1.0 gm/Kg",827 uM/L
same,Plasma Total Amino Acids,"[1]; 13 hrs, C7 = 1.0 gm/Kg",3673 µM
same,Plasma ASPARTATE,"[1]; 41 hrs, C7 = 1.0 gm/Kg",112 µM
same,Plasma CITRULLINE,"[1]; 41 hrs, C7 = 1.0 gm/Kg",43 µM
same,Plasma ARGININE,"[1]; 41 hrs, C7 = 1.0 gm/Kg",93 µM
same,Plasma TRYPTOPHAN,"[1]; 41 hrs, C7 = 1.0 gm/Kg",43 µM
same,Plasma TYROSINE,"[1]; 41 hrs, C7 = 1.0 gm/Kg",62 µM
same,Plasma PHENYLALANINE,"[1]; 41 hrs, C7 = 1.0 gm/Kg",156 µM
same,Plasma ORNITHINE,"[1]; 41 hrs, C7 = 1.0 gm/Kg",163 µM
same,Plasma ISOLEUCINE,"[1]; 41 hrs, C7 = 1.0 gm/Kg",138 uM/L
same,Plasma LEUCINE,"[1]; 41 hrs, C7 = 1.0 gm/Kg",266 uM/L
same,Plasma VALINE,"[1]; 41 hrs, C7 = 1.0 gm/Kg",384 uM/L
same,Plasma ALANINE,"[1]; 41 hrs, C7 = 1.0 gm/Kg",450 uM/L
same,Plasma GLUTAMINE,"[1]; 41 hrs, C7 = 1.0 gm/Kg",424 uM/L
same,Plasma Total Amino Acids,"[1]; 41 hrs, C7 = 1.0 gm/Kg",4160 µM
same,Plasma ASPARTATE,"[1]; 108 hrs, C7 = 1.5 gm/Kg",50 µM
same,Plasma CITRULLINE,"[1]; 108 hrs, C7 = 1.5 gm/Kg",35 µM
same,Plasma ARGININE,"[1]; 108 hrs, C7 = 1.5 gm/Kg",102 µM
same,Plasma TRYPTOPHAN,"[1]; 108 hrs, C7 = 1.5 gm/Kg",40 µM
same,Plasma TYROSINE,"[1]; 108 hrs, C7 = 1.5 gm/Kg",56 µM
same,Plasma PHENYLALANINE,"[1]; 108 hrs, C7 = 1.5 gm/Kg",90 µM
same,Plasma ORNITHINE,"[1]; 108 hrs, C7 = 1.5 gm/Kg",122 µM
same,Plasma ISOLEUCINE,"[1]; 108 hrs, C7 = 1.5 gm/Kg",144 uM/L
same,Plasma LEUCINE,"[1]; 108 hrs, C7 = 1.5 gm/Kg",238 uM/L
same,Plasma VALINE,"[1]; 108 hrs, C7 = 1.5 gm/Kg",304 uM/L
same,Plasma ALANINE,"[1]; 108 hrs, C7 = 1.5 gm/Kg",307 uM/L
same,Plasma GLUTAMINE,"[1]; 108 hrs, C7 = 1.5 gm/Kg",584 uM/L
same,Plasma Total Amino Acids,"[1]; 108 hrs, C7 = 1.5 gm/Kg",3568 µM
same,Plasma ASPARTATE,"[1]; 132 hrs, C7 = 1.5 gm/Kg",42 µM
same,Plasma CITRULLINE,"[1]; 132 hrs, C7 = 1.5 gm/Kg",25 µM
same,Plasma ARGININE,"[1]; 132 hrs, C7 = 1.5 gm/Kg",97 µM
same,Plasma TRYPTOPHAN,"[1]; 132 hrs, C7 = 1.5 gm/Kg",40 µM
same,Plasma TYROSINE,"[1]; 132 hrs, C7 = 1.5 gm/Kg",46 µM
same,Plasma PHENYLALANINE,"[1]; 132 hrs, C7 = 1.5 gm/Kg",84 µM
same,Plasma ORNITHINE,"[1]; 132 hrs, C7 = 1.5 gm/Kg",95 µM
same,Plasma ISOLEUCINE,"[1]; 132 hrs, C7 = 1.5 gm/Kg",128 uM/L
same,Plasma LEUCINE,"[1]; 132 hrs, C7 = 1.5 gm/Kg",220 uM/L
same,Plasma VALINE,"[1]; 132 hrs, C7 = 1.5 gm/Kg",269 uM/L
same,Plasma ALANINE,"[1]; 132 hrs, C7 = 1.5 gm/Kg",277 uM/L
same,Plasma GLUTAMINE,"[1]; 132 hrs, C7 = 1.5 gm/Kg",519 uM/L
same,Plasma Total Amino Acids,"[1]; 132 hrs, C7 = 1.5 gm/Kg",3296 µM
same,time to restoration of Alanine and Glutamine deficits,"[1]; FIG. 5, Triheptanoin diet only",≤ 13 h
same,time for amino acid levels to return to (or above) normal ranges,[1]; after resumption of the diet via gastrostomy,≤ 24 h
same,increase of plasma Glutamine,[1]; [4],~2 fold
same,increase of plasma branched chain amino acids (BCAAs),[1]; [4],~2 fold
same,increase of plasma alanine level,[1]; thirteen hours after initiating the C7 diet by nasogastric tube,4 fold
same,pCO2 (35-45),"[2]; Hospital Day 1, C7 26% Kcal",43
same,pCO2 (35-45),"[2]; Hospital Day 4, C7 35% Kcal",51
same,pCO2 (35-45),"[2]; Hospital Day 7, C7 35% Kcal",42
same,pCO2 (35-45),"[2]; Hospital Day 23, C7 40% Kcal, extubated",48
same,pCO2 (35-45),"[2]; Hospital Day 33, C7 40% Kcal, discharge",44
same,gastrostomy feeds stopped (swallowing improved),[2]; after discharge,7 months
same,patient weight,"[2]; by 15 months post-discharge, 46 Kg on admission",60 kg
same,day of extubation,[2]; hospital admission on C7 diet,23 days
same,return to work half-time after discharge,[2]; [5],5 weeks
same,working full-time after discharge,[2]; [5],≤ 10 weeks
same,full vital capacity,[2]; post-discharge follow-up,40-45 % of predicted
same,urgency for urination and defecation,[2]; within 13 hours of beginning the C7 diet,had ceased and remained normal for the rest of the admission
same,pCO2,"[2]; within 13 hours of beginning the C7 diet, fell from 68, normal 35-45",43
same,time of peak of C7 acyl carnitine,"[3]; 0.5 gm/kg via nasogastric tube, fasted 12 hours, three horses",90 min
same,time of peak serum concentration of C3 acylcarnitine,[3]; in vivo,120 min
same,time of peak serum concentration of C5 acylcarnitine,[3]; in vivo,120 min
